Measured values as given in patent US10399968B2, “Hydroxyalkyl thiadiazole derivatives” (Daiichi Sankyo Company, Limited, priority 2015, dated 2019).
≈ marks a conversion by molar mass, not a printed value. Where two headings read alike, the source gives them in different places.

Key:
[1] = test system: S. aureus ATCC 29213; assay: Susceptibility of bacteria, broth microdilution MIC; type: cell-based; conditions: Staphylococcus aureus, ATCC29213
Description: The antibacterial activity of the compounds of the present invention was tested by the broth microdilution method. The assay was carried out according to the CLSI guidelines for managing the procedures of susceptibility tests: “M7-A7 Methods for Dilution Antimicrobial Susceptibility Tests for Bacteria That Grow Aerobically; Approved Standard-Seventh Edition (2006)”. Test strains were grown on appropriate agar plates overnight. A broth containing the test compound diluted serially 2-fold and diluents were dispensed at 100 μL to each well of a 96-well microplate. As a growth control, a well with a broth not containing the test compound was also prepared. Colonies grown on the plates were suspended in saline, adjusted to 0.5 McFarland (OD625=0.08 to 0.10) using a colorimeter, and then diluted 10-fold with saline. The bacterial suspension was inoculated at 4 μL into each well of the microplate using a bacterial suspension inoculation apparatus. The inoculated microplate was incubated at 35° C. overnight (about 20 hours). The growth condition was observed by the naked eye, and the minimum concentration to inhibit bacterial proliferation was defined as a minimum inhibitory concentration (MIC). The MICs of compounds disclosed herein for E. faecium, Streptococcus pneumoniae and Haemophilus influenzae are shown in Table 2, while for S. aureus in Table 3.

[2] = Solubility in water (JP1 / JP2 fluids); type: physicochemical; conditions: thermodynamic from solid
Description: A 10 mmol/L solution of the test compound was prepared in DMSO and dispensed 100 μL of 10 mmol/L DMSO stock solutions into labeled glass tubes in duplicate, one for Japanese Pharmacopeia First Fluid (JP1) and second for Japanese Pharmacopeia Second Fluid (JP2). After evaporation of DMSO from each tube, 500 μL of JP1 and JP2 fluid were added in each tube, respectively. These tubes were sonicated for 1 minute and placed on shaker for 30 minutes with an interval of 30 seconds at every 5 minute. Tubes were placed in dark at room temperature for 1 hour and solution was filtered through membrane filter. The filtrate was diluted 2-fold and 10-fold. The resulting test solutions was analyzed and quantified against the standards using UPLC (standard preparation—10 mmol/L solution in DMSO is serially diluted with 50% aqueous acetonitrile solution to prepare 2 solutions; 100 μmol/L standard solution and 5 μmol/L standard solutions).

[3] = test system: Clostridium difficile ATCC 43255; assay: Susceptibility of Clostridium difficile, agar dilution MIC; type: cell-based; conditions: Clostridioides difficile, ATCC43255, anaerobic
Description: The antibacterial activity of the compounds of the present invention against Clostridium difficile clinical isolates was tested by the agar dilution method. The assay was carried out according to the CLSI guidelines for managing the procedures of susceptibility tests “M11-A8, Methods for Antimicrobial Susceptibility Testing of Anaerobic Bacteria; Approved Standard-Eighth Edition. CLSI document (2012)”.
The test strains were spread on supplemented Brucella agar (SBA) plates and grown at 36° C. under anaerobic condition for 42 to 48 hours. The test compound dilutions were prepared with Brucella broth and SBA plates containing dilution of test compound were prepared. As an anaerobic growth control, plates not containing the test compound were also prepared. Colonies grown on plates were suspended with Brucella broth to adjust the turbidity to 0.5 McFarland using a densitometer. Suspension (1-2 μL) of the test strains was inoculated onto each agar surface by using a bacterial suspension inoculation apparatus. After anaerobic incubation at 36° C. for 42 to 48 hours, absence and presence of growth of each strain were examined with unaided eye. The MIC was determined at which a marked reduction occurs in the appearance of growth on the test plate as compared to that of growth on the anaerobic control plates.

[4] = test system: P. acnes IHMA 103740; assay: Susceptibility of P. acnes, agar dilution MIC; type: cell-based; conditions: Cutibacterium acnes, IHMA103740, anaerobic
Description: (§1) The antibacterial activity of the compounds of the present invention against P. acnes clinical isolates was tested by the agar dilution method. The assay was carried out according to the CLSI guidelines document (Clinical and Laboratory Standards Institute, 2012 & 2016). The test strains were spread on supplemented Brucella agar (SBA) plates and grown for 42 to 48 hours at 36° C. under anaerobic condition. The test compound dilutions were prepared with Brucella broth and SBA plates containing dilution of test compound were prepared. As an anaerobic growth control and to check the aerobic contamination, plates not containing the test compound were also prepared. Colonies grown on plates were suspended with Brucella broth to adjust the turbidity to 0.5 McFarland using a densitometer. Suspension (1-2 μL) of the test strains was inoculated onto each agar surface by using a bacterial suspension inoculation apparatus (multipoint inoculator). After anaerobic incubation for 42 to 48 hours at 36° C., absence and presence of growth of each strain on growth control plates and test compounds plate were examined with unaided eye. The MIC was determined at which a marked reduction occurs in the appearance of growth on the test plate as compared to that of growth on the anaerobic control plates.

[5] = test system: P. acnes ATCC 6921; assay: Susceptibility of P. acnes, agar dilution MIC; type: cell-based; conditions: Cutibacterium acnes, ATCC6921, anaerobic
Description: as §1

[6] = test system: P. acnes IHMA 775486; assay: Susceptibility of P. acnes, agar dilution MIC; type: cell-based; conditions: Cutibacterium acnes, IHMA775486, anaerobic
Description: as §1

[7] = test system: P. acnes ATCC 6523; assay: Susceptibility of P. acnes, agar dilution MIC; type: cell-based; conditions: Cutibacterium acnes, ATCC6523, anaerobic
Description: as §1

[8] = test system: Haemophilus influenzae ATCC 49247; assay: Susceptibility of bacteria, broth microdilution MIC; type: cell-based; conditions: ATCC49247
Description: (§2) The antibacterial activity of the compounds of the present invention was tested by the broth microdilution method. The assay was carried out according to the CLSI guidelines for managing the procedures of susceptibility tests: “M7-A7 Methods for Dilution Antimicrobial Susceptibility Tests for Bacteria That Grow Aerobically; Approved Standard-Seventh Edition (2006)”. Test strains were grown on appropriate agar plates overnight. A broth containing the test compound diluted serially 2-fold and diluents were dispensed at 100 μL to each well of a 96-well microplate. As a growth control, a well with a broth not containing the test compound was also prepared. Colonies grown on the plates were suspended in saline, adjusted to 0.5 McFarland (OD625=0.08 to 0.10) using a colorimeter, and then diluted 10-fold with saline. The bacterial suspension was inoculated at 4 μL into each well of the microplate using a bacterial suspension inoculation apparatus. The inoculated microplate was incubated at 35° C. overnight (about 20 hours). The growth condition was observed by the naked eye, and the minimum concentration to inhibit bacterial proliferation was defined as a minimum inhibitory concentration (MIC).

[9] = test system: Streptococcus pneumoniae ATCC 49619; assay: as above; type: cell-based; conditions: ATCC49619
Description: as §2

[10] = test system: E. faecium ATCC 29212; assay: as above; type: cell-based; conditions: Enterococcus faecium, ATCC29212
Description: as §2

[11] = test system: Clostridium difficile 2009155, a NAP1/027 strain; assay: Hamster CDI model; type: in vivo; conditions: 0.3 mg/kg/day by oral route, 5 days
Description: The in vivo efficacy of test compounds were evaluated in a hamster CDI model caused by Clostridium difficile 2009155, a NAP1/027 strain. Syrine hamsters (6-8-weeks old) were primed with a single subcutaneous injection of clindamycin (30 mg/kg) 1-5 days prior to infection. Hamsters were infected by oral gavage with 1 ml of spore suspension ([…]) prepared in PBS. The drug was administered to the hamsters 6 hours post infection by oral or subcutaneous route at an interval of 24 hours for 5 days. The death and survival of the non-treated group and the drug-administered group were recorded once daily for 35 days.

[12] = target: Clostridium difficile DNA gyrase (Clostridioides difficile, UniProt Q18C89); assay: DNA supercoiling inhibition assay; type: biochemical; conditions: supercoiling of relaxed pBR322 DNA, 60 minutes at 37° C.
Description: DNA supercoiling assays (30 μL reaction) were performed in a buffer containing 15 mM Tris-HCl pH 7.5, 13% glycerol, 6 mM MgCl2, 0.1 mg/mL BSA, 70 mM KCl, 1 mM dithioerythritol, 400 ng of DNA substrate (relaxed pBR322 DNA) and different concentrations of test compounds and/or standards. The dilutions of test compounds and standards were prepared in 20% dimethylsulfoxide (DMSO) and added 3 μL/reaction. The reaction was started by adding 2 μL amounts of Clostridium difficile DNA gyrase into the reaction mixtures and reactions were allowed to proceed for 60 minutes at 37° C. A reaction was carried out by adding 3 μL of 20% DMSO instead of test compound as full reaction control, and another reaction was carried out by adding sterile water instead of the enzyme as no reaction control.
Reactions were stopped by the addition of 5 μL of 6×loading dye and were analyzed by electrophoresis through 1.0% agarose gels with 1×TAE running buffer. Gels were run at 60 V for 3 hours, stained with EtBr, and visualized by Gel Doc system (BioRad). Intensity of the supercoiled DNA bands was quantified, and the IC50 of Clostridium difficile DNA gyrase was calculated using Graph Pad Prism.

[13] = Japanese Pharmacopeia First Fluid (JP1), pH 1.2, simulated gastric fluid, read-out: Solubility JP1
[14] = Japanese Pharmacopeia Second Fluid (JP2), pH 6.8, aqueous buffer, read-out: Solubility JP2

Sequence of Clostridium difficile DNA gyrase (Q18C90 entry or part of it): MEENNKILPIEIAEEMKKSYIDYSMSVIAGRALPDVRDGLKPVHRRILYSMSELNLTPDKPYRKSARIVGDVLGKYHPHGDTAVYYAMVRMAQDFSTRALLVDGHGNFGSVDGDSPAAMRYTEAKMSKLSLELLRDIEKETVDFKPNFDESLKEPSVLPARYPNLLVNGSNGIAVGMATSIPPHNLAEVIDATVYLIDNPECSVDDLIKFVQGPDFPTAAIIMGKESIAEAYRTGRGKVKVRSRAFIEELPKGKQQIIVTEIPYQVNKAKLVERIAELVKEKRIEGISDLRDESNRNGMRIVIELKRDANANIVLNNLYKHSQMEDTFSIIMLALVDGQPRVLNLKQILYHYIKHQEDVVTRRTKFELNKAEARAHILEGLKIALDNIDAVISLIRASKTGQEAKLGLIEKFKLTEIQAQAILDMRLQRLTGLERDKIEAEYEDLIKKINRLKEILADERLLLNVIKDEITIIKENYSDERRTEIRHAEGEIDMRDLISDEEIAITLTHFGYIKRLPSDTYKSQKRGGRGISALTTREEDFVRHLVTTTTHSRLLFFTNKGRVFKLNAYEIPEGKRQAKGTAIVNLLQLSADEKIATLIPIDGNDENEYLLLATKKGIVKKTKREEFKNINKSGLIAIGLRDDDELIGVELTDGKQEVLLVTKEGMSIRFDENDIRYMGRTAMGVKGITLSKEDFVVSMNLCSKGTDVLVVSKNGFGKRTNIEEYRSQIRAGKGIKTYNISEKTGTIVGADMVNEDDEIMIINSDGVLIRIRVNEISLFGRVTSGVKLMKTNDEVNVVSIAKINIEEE
Sequence of Clostridium difficile DNA gyrase (Q18C89 entry or part of it): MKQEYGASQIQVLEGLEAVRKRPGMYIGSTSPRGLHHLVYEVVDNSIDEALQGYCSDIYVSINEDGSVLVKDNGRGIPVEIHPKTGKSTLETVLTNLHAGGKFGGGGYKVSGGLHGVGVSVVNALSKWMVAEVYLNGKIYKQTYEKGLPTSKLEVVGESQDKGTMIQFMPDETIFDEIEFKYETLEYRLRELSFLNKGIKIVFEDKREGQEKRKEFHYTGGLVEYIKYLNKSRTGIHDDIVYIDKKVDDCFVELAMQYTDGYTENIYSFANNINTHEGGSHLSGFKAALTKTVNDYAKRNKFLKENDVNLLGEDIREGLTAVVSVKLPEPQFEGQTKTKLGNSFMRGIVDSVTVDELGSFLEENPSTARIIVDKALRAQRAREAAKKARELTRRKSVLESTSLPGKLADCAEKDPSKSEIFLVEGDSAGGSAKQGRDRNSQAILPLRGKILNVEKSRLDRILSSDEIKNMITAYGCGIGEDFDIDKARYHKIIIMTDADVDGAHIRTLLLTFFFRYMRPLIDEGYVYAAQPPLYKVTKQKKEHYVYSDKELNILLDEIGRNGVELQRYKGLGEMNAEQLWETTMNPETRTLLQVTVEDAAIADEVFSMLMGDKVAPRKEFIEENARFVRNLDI

Question: For `CCc1[nH]c(C(=O)N[C@@H]2CCN(c3nnc(C(O)CO)s3)C[C@@H]2OC)nc1Cl` (stereo in doubt) [Compound No. 8, 4-Chloro-N-[(3S,4R)-1-{5-[(1S)-1,2-dihydroxyethyl]-1,3,4-thiadiazol-2-yl}-3-methoxypiperidin-4-yl]-5-ethyl-1H-imidazole-2-carboxamide], which MIC [1] is on record?
Answer: 4 µg/mL (≈ 9.28 µM)

Question: What about the solubility at 30 min [2, 13] of the same molecule?
Answer: 728 µg/mL (≈ 1690 µM)

Question: And the solubility at 30 min [2, 14]?
Answer: 125 µg/mL (≈ 290 µM)

Question: What about the MIC [3] of the same molecule?
Answer: 0.125 µg/mL (≈ 0.29 µM)

Question: And the MIC [4]?
Answer: 0.25 µg/mL (≈ 0.58 µM)

Question: What about the MIC [5] of the same molecule?
Answer: 0.25 µg/mL (≈ 0.58 µM)

Question: And the MIC [6]?
Answer: 0.25 µg/mL (≈ 0.58 µM)

Question: What about the MIC [7] of the same molecule?
Answer: 0.25 µg/mL (≈ 0.58 µM)

Question: With `CCc1[nH]c(C(=O)N[C@@H]2CCN(c3nnc(C(O)CO)s3)C[C@@H]2OC)nc1Cl` (stereo in doubt) [Compound No. 9, 4-Chloro-N-[(3S,4R)-1-{5-[(1R)-1,2-dihydroxyethyl]-1,3,4-thiadiazol-2-yl}-3-methoxypiperidin-4-yl]-5-ethyl-1H-imidazole-2-carboxamide] as the molecule, how does the MIC [1] read?
Answer: 4 µg/mL (≈ 9.28 µM)

Question: And the solubility at 30 min [2, 13]?
Answer: 862 µg/mL (≈ 2000 µM)

Question: And the solubility at 30 min [2, 14]?
Answer: 220 µg/mL (≈ 511 µM)

Question: And the MIC [3]?
Answer: 0.125 µg/mL (≈ 0.29 µM)

Question: What about the MIC [4] of the same molecule?
Answer: 0.125 µg/mL (≈ 0.29 µM)

Question: What about the MIC [5] of the same molecule?
Answer: 0.125 µg/mL (≈ 0.29 µM)

Question: What about the MIC [6] of the same molecule?
Answer: 0.125 µg/mL (≈ 0.29 µM)

Question: What about the MIC [7] of the same molecule?
Answer: 0.125 µg/mL (≈ 0.29 µM)

Question: Which MIC [1] does the source give for `CCO[C@H]1CN(c2nnc(C(C)O)s2)CC[C@H]1NC(=O)c1nc(Cl)c(CC)[nH]1` (stereo partly drawn) [Compound No. 1, 4-Chloro-N-{(3S,4R)-3-ethoxy-1-[5-(1-hydroxyethyl)-1,3,4-thiadiazol-2-yl]piperidin-4-yl}-5-ethyl-1H-imidazole-2-carboxamide] here?
Answer: 0.5 µg/mL (≈ 1.17 µM)

Question: And the MIC [8]?
Answer: 2 µg/mL (≈ 4.66 µM)

Question: And the MIC [9]?
Answer: 0.25 µg/mL (≈ 0.583 µM)

Question: And the MIC [10]?
Answer: 0.25 µg/mL (≈ 0.583 µM)

Question: What about the MIC [3] of the same molecule?
Answer: 0.03 µg/mL (≈ 0.0699 µM)

Question: What about the “survival on day 35” value [11] of the same molecule?
Answer: 100%

Question: And the IC50 [12]?
Answer: 8.63 nM

Question: For `CCc1[nH]c(C(=O)N[C@@H]2CCN(c3nnc(C(C)CO)s3)C[C@@H]2OC)nc1Cl` (stereo partly drawn) [Compound No. 6, 4-Chloro-5-ethyl-N-{(3S,4R)-1-[5-(1-hydroxypropan-2-yl)-1,3,4-thiadiazol-2-yl]-3-methoxypiperidin-4-yl}-1H-imidazole-2-carboxamide], which MIC [1] is on record?
Answer: 0.5 µg/mL (≈ 1.17 µM)

Question: What about the MIC [3] of the same molecule?
Answer: 0.125 µg/mL (≈ 0.291 µM)

Question: What about the MIC [4] of the same molecule?
Answer: 0.25 µg/mL (≈ 0.583 µM)

Question: And the MIC [5]?
Answer: 0.125 µg/mL (≈ 0.291 µM)

Question: What about the MIC [6] of the same molecule?
Answer: 0.25 µg/mL (≈ 0.583 µM)

Question: And the MIC [7]?
Answer: 0.125 µg/mL (≈ 0.291 µM)

Question: Which MIC [1] does the source give for `CCO[C@H]1CN(c2nnc(C(C)(C)O)s2)CC[C@H]1NC(=O)c1nc(Cl)c(CC)[nH]1` [Compound No. 7, 4-Chloro-N-{(3S,4R)-3-ethoxy-1-[5-(2-hydroxypropan-2-yl)-1,3,4-thiadiazol-2-yl]piperidin-4-yl}-5-ethyl-1H-imidazole-2-carboxamide] here?
Answer: 0.5 µg/mL (≈ 1.13 µM)

Question: What about the solubility at 30 min [2, 14] of the same molecule?
Answer: 611 µg/mL (≈ 1380 µM)

Question: And the MIC [3]?
Answer: 0.125 µg/mL (≈ 0.282 µM)

Question: Which MIC [1] does the source give for `CCc1[nH]c(C(=O)N[C@@H]2CCN(c3nnc(C(C)(O)CO)s3)C[C@@H]2OC)nc1Cl` (stereo in doubt) [Compound No. 11, 4-Chloro-N-[(3S,4R)-1-{5-[(2S)-1,2-dihydroxypropan-2-yl]-1,3,4-thiadiazol-2-yl}-3-methoxypiperidin-4-yl]-5-ethyl-1H-imidazole-2-carboxamide] here?
Answer: 1 µg/mL (≈ 2.25 µM)

Question: And the solubility at 30 min [2, 13]?
Answer: 884 µg/mL (≈ 1990 µM)

Question: What about the solubility at 30 min [2, 14] of the same molecule?
Answer: 264 µg/mL (≈ 593 µM)

Question: What about the MIC [3] of the same molecule?
Answer: 0.06 µg/mL (≈ 0.135 µM)

Question: What about the “survival on day 35” value [11] of the same molecule?
Answer: 100%

Question: And the IC50 [12]?
Answer: 27 nM
